Measurements taken from US11192849B2, “Compounds, compositions, and methods for modulating ferroptosis and treating excitotoxic disorders” (THE TRUSTEES OF COLUMBIA UNIVERSITY IN THE CITY OF NEW YORK, priority 2013, dated 2021).
Read-outs that look alike come from different tables or passages of the source.

Assays:
HT-1080 cells = assay: Inhibition of erastin (10 μM)-induced death in HT-1080 cells (Alamar Blue); type: cell-based, human; settings: for EC50: Homo sapiens
Procedure, shortened: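 HT-1080 cells (1,000/well) were treated next day with 10 μM erastin plus a compound dilution series for 24 h. Alamar Blue (10% final) was then added for 6 h and fluorescence read at ex/em 530/590.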

[1] = test system: primary pre-oligodendrocytes; assay: PVL model: cystine deprivation of developing oligodendrocytes; type: cell-based, rat; settings: 100 nM, 24 hrs, Alamar Blue
Protocol: Primary pre-oligodendrocytes cultures were prepared from the forebrains of P2 Sprague Dawley (Charles River Laboratory) rat pups using a differential detachment method. Forebrains free of meninges were dissociated with Hanks' Balanced Salt Solution containing 0.01% trypsin and 10 μg/ml DNase, and triturated with DMEM containing 10% heat-inactivated fetal bovine serum and 100 U/ml penicillin and 100 μg/ml streptomycin. Dissociated cells were plated onto poly-D-lysine-coated 75 cm^2 flasks and fed cells every other day for 10-17 days. On day 10 or 17, following 1 hour pre-shake at 200 rpm 37° C. to remove microglia, the flasks were shaken overnight to separate pre-oligodendrocytes from astrocyte layer. The cell suspension was passed through a 20 μm filter and plated onto uncoated (bacteriological) petri dishes for 1 hour in incubator to remove residual microglia/astrocytes. Cell suspension was plated onto poly-D,L-ornithine-coated plates with DMEM, 1×ITS (Life Technologies), 2 mM L-glutamine, 1 mM sodium pyruvate, 0.5% FBS and 0.05% gentamicin (Sigma), 10 ng/ml PDGF and 10 ng/ml FGF (Peprotech), with full medium change the next day and half medium change every other day. […] Fluorescence was assayed in each well using FluoroCount Plate Reader (Packard), with Packard Plate Reader Version 3.0, and 530 nm excitation, and 590 nm emission filters. […]

SMILES: CCOC(=O)c1ccc(NC2CCCCC2)c(N)c1 [SRS8-28 (Fer-1), ethyl 3-amino-4-(cyclohexylamino)benzoate]
- EC50 (HT-1080 cells; HT-1080, SI Table 2, analogs with various hydrophobic moieties): 95 nM
- EC50 (HT-1080 cells; HT-1080, SI Table 5): 88 nM
- EC50 (HT-1080 cells; HT-1080, SI Table 8): 88 nM
- EC50 (HT-1080 cells; HT-1080, Table 1 (Example 10), erastin (10 μM)-treated HT-1080 cells): 95 nM
- prevention of erastin-induced death (HT-1080 cells; erastin-treated HT-1080 cells): suppressed erastin-induced death
- protection of oligodendrocytes from cystine deprivation [1]: fully protected OLs from cystine deprivation

SMILES: CCOC(=O)c1ccc(NC2CCCCC2)c(NCc2ccccc2)c1 [SRS11-92, ethyl 3-(benzylamino)-4-(cyclohexylamino)benzoate]
- fold more potent than the parent Fer-1 (HT-1080 cells; HT-1080, erastin (10 μM)): 15 fold
- potency compared with Fer-1 (HT-1080 cells; HT-1080, erastin (10 μM)): more potent than Fer-1
- EC50 (HT-1080 cells; HT-1080, Example 15, erastin (10 μM), HT-1080, read-out: EC50): 6 nM
- EC50 (HT-1080 cells; HT-1080, SI Table 6, read-out: EC50): 6 nM
- EC50 (HT-1080 cells; HT-1080, SI Table 7, read-out: EC50): 6 nM
- protection of oligodendrocytes from cystine deprivation [1]: fully protected OLs from cystine deprivation
